Patent US20040006784A1, “Methods and compositions for producing plants and microorganisms that express feedback insensitive threonine dehydratase/deaminase” (priority 1997, published 2004)

What was measured:
[1] = test system: E. coli prototroph host DH5α; assay: Growth of E. coli DH5α on minimal medium supplemented with L-O-methylthreonine (second complementation experiment); type: cell-based
Protocol: In the second complementation experiment, the E. coli prototroph host DH5α was transformed with pTrc-td23 or pUCK-td23 and plated on minimal medium supplemented with varying concentrations of the toxic analog L-O-methylthreonine. Both of the constructs were able to confer upon DH5α resistance to 30 μM L-O-methylthreonine. […] Therefore omr1 provides a new environmentally friendly selectable marker for genetic transformation of bacteria.

[2] = test system: Arabidopsis thaliana Columbia wild type; assay: Germination and growth of seedlings in agar medium supplemented with L-O-methylthreonine; type: in vivo; conditions: 0.2 mM L-O-methylthreonine agar medium, T1 seed screen
From the text: Using the vacuum infiltration method of Bent et al. (1994), L-O-methylthreonine-sensitive Arabidopsis thaliana Columbia wild type were transformed with pCM35S-omr1. Ten pots, each with 3-4 plants, were transformed and T1 seeds were harvested from the To transformed plants of each pot separately. […] In a crowded plate, it is possible to identify the transformants by looking at the bottom of the plate, the transformants show root growth while the nontransformants will have none. After three weeks of growth in the 0.2 mM L-O-methylthreonine agar medium, each of the 5 positive transformants was transferred to soil, kept separately and allowed to self-fertilize to produce the T2 seed.

[3] = test system: T2 seedlings of omr1 transgenic Arabidopsis; assay: T2 seedlings of omr1 transformants on L-O-methylthreonine agar medium; type: in vivo, Arabidopsis thaliana; conditions: 0.2 mM L-O-methylthreonine agar medium, 50 T2 seeds/transformant, each of 5 plates
Protocol: The T2 seed was harvested from each of the 5 positive T1 transformants and 50 T2 seeds/transformant were planted in a separate petri plate containing 0.2 mM L-O-methylthreonine agar medium. […] This slightly truncated precursor mutant TD was able to translocate to the chloroplast and confer upon transgenic plants resistance to OMT.

[4] = test system: Arabidopsis thaliana Columbia wild type; conditions: agar medium; Mourad and King, 1995; cited from earlier work
[5] = test system: manmalian cell cultures; conditions: by inhibiting incorporation of Ile into proteins; Rabinovitz et al. 1955; cited from earlier work
[6] = biological target: T1, threonine dehydratase/deaminase (TD) (Arabidopsis thaliana, UniProt Q9ZSS6, R499C/R544H); conditions: extracts from GM11b (omr1/omr1) plants compared with wild type plants; Mourad and King 1995; cited from earlier work
T1 construct: from tissue; host or cells: extracts of Arabidopsis thaliana GM11b (omr1/omr1) plants
T1 sequence (Q9ZSS6 92-592 R499C/R544H): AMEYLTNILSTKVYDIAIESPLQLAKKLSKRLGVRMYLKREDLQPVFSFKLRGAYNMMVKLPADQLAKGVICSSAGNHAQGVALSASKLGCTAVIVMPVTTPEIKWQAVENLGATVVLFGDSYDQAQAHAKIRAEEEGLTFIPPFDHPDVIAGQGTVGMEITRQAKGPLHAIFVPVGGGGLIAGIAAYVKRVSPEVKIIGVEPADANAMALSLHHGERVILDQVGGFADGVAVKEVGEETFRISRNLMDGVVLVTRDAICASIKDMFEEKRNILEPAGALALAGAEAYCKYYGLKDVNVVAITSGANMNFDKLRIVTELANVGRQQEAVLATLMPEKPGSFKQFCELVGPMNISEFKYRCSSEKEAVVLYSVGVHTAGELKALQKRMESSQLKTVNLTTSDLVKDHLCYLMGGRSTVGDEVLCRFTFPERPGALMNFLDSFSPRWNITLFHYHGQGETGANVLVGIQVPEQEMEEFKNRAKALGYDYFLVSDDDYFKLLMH

Compound | L-O-methylthreonine concentration to which resistance was conferred ([1]; DH5α transformed with pTrc-td23 or pUCK-td23 (omr1), minimal medium) [µM] | growth of bacterial colonies on plates with L-O-methylthreonine ([1]; untransformed DH5α, minimal medium supplemented with varying concentrations of L-O-methylthreonine) | appearance of nontransformed seedlings after emergence of the cotyledons [2] | T2 seedlings resistant to L-O-methylthreonine [3] [%] | concentration known to completely inhibit the growth of wild type seedlings beyond the cotyledonous stage [4] [mM] | effect on growth of mammalian cell cultures [5] | resistance of TD activity to feedback inhibition by Ile, GM11b extracts versus wild type extracts [6]
CO[C@H](C)[C@H](N)C(=O)O [L-O-methylthreonine] | 30 | No bacterial colonies grew | completely bleached | ≥ 75 | 0.2 | inhibits growth | 
CC[C@H](C)[C@H](N)C(=O)O [Ile, isoleucine] |  |  |  |  |  |  | about 50 fold
